Results: US8912220B2 (priority 2009, dated 2014)

Assays:
human 5-HT6 = target: T1, human 5-HT6 (Homo sapiens, UniProt P50406); test: cAMP agonist and antagonist mode at 5-HT6 (HTRF, 1321N1 cells); assay type: cell-based; conditions: reference agonist, used in antagonist mode
T1 construct: expressed in transfected cells
Method: For assessment of 5-HT6 activity, 1321N1 cells stably expressing human 5-HT6 were grown to ˜90% confluence in a humidified atmosphere at 37° C. with 5% CO2 in F12 nutrient mixture (Ham) containing 10% dialyzed FBS, 400 µg/ml G418, 100 U/ml penicillin, and 100 µg/ml streptomycin. Medium was removed by aspiration, cells were washed 1× with PBS, and dissociated using PBS-EDTA for […] at room temperature. Cells were then diluted with PBS and pelleted by centrifugation for […] at 1000 rpm. Cells were suspended in assay buffer containing 3000 µM Ro-20-1724 (Sigma, St. Louis, Mo.), a phosphodiesterase inhibitor. Cells were seeded using a microplate dispenser at a density of 3,750 cells/well in a volume of 5 µl onto 384 well white wall/opaque bottom, small volume plates (Greiner Bio One, Monroe, N.C.).
Compound plates for cAMP assays were prepared at 8 mM in 100% DMSO and diluted in assay buffer to the appropriate test concentrations. The final in-well concentration of DMSO was 0.5%. Compounds were tested in duplicate wells using a range of twelve concentrations. […]
Homogeneous time-resolved fluorescence (HTRF) (cAMP dynamic 2 kit; Cisbio, Bedford, Mass.) was used to measure the formation of 3′,5′-cyclic adenosine monophosphate (cAMP) per the manufacturer's instructions. HTRF signal was measured at 620 and 665 nm using an EnVision Multilabel Plate Reader (PerkinElmer). […]

human 5-HT2C(VSV) = human 5-HT2C(VSV) (Homo sapiens, UniProt P28335, I156V/I160V/N158S); test: cell-based
human 5-HT2C(VSV), sequence (P28335 33-458 I156V/N158S/I160V limits assumed): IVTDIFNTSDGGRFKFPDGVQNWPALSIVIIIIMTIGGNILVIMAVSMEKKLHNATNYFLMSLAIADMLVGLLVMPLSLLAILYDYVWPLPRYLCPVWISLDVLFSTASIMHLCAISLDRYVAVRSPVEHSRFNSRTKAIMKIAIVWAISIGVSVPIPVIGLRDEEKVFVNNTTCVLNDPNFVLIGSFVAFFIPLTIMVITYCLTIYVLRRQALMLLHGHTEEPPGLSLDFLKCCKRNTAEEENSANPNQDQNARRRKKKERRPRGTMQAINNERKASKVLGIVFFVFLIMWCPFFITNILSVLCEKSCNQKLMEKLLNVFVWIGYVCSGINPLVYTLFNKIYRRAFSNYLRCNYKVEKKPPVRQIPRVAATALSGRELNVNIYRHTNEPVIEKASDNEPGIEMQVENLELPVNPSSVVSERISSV

T1 sequence (P50406 whole entry): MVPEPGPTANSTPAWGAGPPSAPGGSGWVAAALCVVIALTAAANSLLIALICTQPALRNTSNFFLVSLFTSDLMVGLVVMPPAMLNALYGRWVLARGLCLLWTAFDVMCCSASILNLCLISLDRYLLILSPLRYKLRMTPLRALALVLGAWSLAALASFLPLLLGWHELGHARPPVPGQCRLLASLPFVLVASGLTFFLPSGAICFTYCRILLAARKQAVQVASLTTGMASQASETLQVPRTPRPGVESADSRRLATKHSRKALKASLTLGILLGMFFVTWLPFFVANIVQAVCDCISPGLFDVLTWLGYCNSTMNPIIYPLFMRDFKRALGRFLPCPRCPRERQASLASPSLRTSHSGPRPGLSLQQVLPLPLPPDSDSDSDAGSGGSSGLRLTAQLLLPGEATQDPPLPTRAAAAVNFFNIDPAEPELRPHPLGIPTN

Structure (SMILES)	EC80 of 5-HT (human 5-HT6) [nM]	EC50 (human 5-HT2C(VSV)) [nM]
NCCc1c[nH]c2ccc(O)cc12 [5-HT, 5-hydroxytryptamine]	15	
CCn1cc(CCN(C)C)c2c(OCc3ccsc3)cc(F)cc21 [1-19b, 2-(1-ethyl-6-fluoro-4-(thiophen-3-ylmethoxy)-1H-indol-3-yl)-N,N-dimethylethanamine]		1 to 500
CCn1cc(CCNCc2ccccc2)c2c(OCc3ccccc3)cc(F)cc21 [26-7, N-benzyl-2-(4-(benzyloxy)-1-ethyl-6-fluoro-1H-indol-3-yl)ethanamine]		500 to 10000
CCn1cc(CCN2CCOCC2)c2c(O)cc(F)cc21 [11-5, 1-ethyl-6-fluoro-3-(2-morpholinoethyl)-1H-indol-4-ol]		1 to 500
CCn1cc(CCN(C)C)c2c(OCc3ccc(Cl)cc3)cc(F)cc21 [1-10b, 2-(4-(4-chlorobenzyloxy)-1-ethyl-6-fluoro-1H-indol-3-yl)-N,N-dimethylethanamine]		500 to 10000
CCn1cc(CCNCc2cccc(C(F)(F)F)c2)c2c(OCc3ccccc3)cc(F)cc21 [31-8, 2-(4-(benzyloxy)-1-ethyl-6-fluoro-1H-indol-3-yl)-N-(3-(trifluoromethyl)benzyl)ethanamine]		500 to 10000
COc1ccc(CNCCc2cn(C)c3ccc(F)c(OC)c23)cc1OC [34-8, N-(3,4-dimethoxybenzyl)-2-(5-fluoro-4-methoxy-1-methyl-1H-indol-3-yl)ethanamine]		1 to 500
CNCCc1cn(C)c2ccc(F)c(OCCOc3ccccc3)c12 [33-14, 2-(5-fluoro-1-methyl-4-(2-phenoxyethoxy)-1H-indol-3-yl)-N-methylethanamine]		1 to 500
CCOc1c(F)ccc2c1c(CCNCc1ccccc1Cl)cn2C [30-17, N-(2-chlorobenzyl)-2-(4-ethoxy-5-fluoro-1-methyl-1H-indol-3-yl)ethanamine]		1 to 500
CN(C)CCc1cn(Cc2ccccc2)c2c(F)ccc(O)c12 [7-3, 1-benzyl-3-(2-(dimethylamino)ethyl)-7-fluoro-1H-indol-4-ol]		500 to 10000
CCOc1c(F)ccc2c1c(CCNCCc1ccccc1)cn2C [30-25, 2-(4-ethoxy-5-fluoro-1-methyl-1H-indol-3-yl)-N-phenethylethanamine]		1 to 500
CCn1cc(CCN(C)C)c2c(Oc3ccccc3)cc(F)cc21 [32-2, 2-(1-ethyl-6-fluoro-4-phenoxy-1H-indol-3-yl)-N,N-dimethylethanamine]		500 to 10000
